Data: US20070191480A1, “Gycol Ether Miticides and Anti-Allergen Treatments” (priority 2004, published 2007)
Read-outs that look alike come from different tables or passages of the source.

How the values were obtained:
dust mites = assay: Dust mite kill efficacy, submersion method; format: in vivo; settings: for 1% HC Solution: % kill at 30 min / 1% HC Solution: time to 100% kill: 1% HC solution with 1% Stepanol WAC; for 1% HC Solution: % kill at 30 min: None = no kill; for 1% HC with 7% DPnP Solution: % kill at 30 min / 1% HC with 7% DpnP at 9.5 pH: % kill at 30 min / 1% HC with 7% DPnP Solution: time to 100% kill / 1% HC with 7% DpnP at 9.5 pH: time to 100% kill: 1% Stepanol WAC; for 1% HC with 7% DpnP at 9.5 pH: % kill at 30 min / 1% HC with 7% DpnP at 9.5 pH: time to 100% kill: pH 9.5; for 8% Solution: time to 100% kill: 8% glycol ether/ester in water with 1% Stepanol WAC, mites immersed, maximum time period 30 minutes; for >50% kill in 30 min.: 8% or saturated solutions in water, dust mites; for 1% HC Solution: time to 100% kill: solution pH (6.30-7.26); for 1% HC Solution: time to 100% kill / 1% HC with 7% DPnP Solution: time to 100% kill / 1% HC with 7% DpnP at 9.5 pH: time to 100% kill: maximum 30 minutes
Text: To test the efficacy of the cleaning composition containing glycol ether, glycol ether ester, and combinations thereof for their ability to kill dust mites, a submersion method was used. The dust mites were immersed in the following solutions with a 1% or 8% glycol ether, glycol ether ester or a combination thereof. In addition to the glycol ether and or glycol ether ester, the solution also contained about 1% Stepanol® WAC (sodium lauryl sulfate) surfactant and the remainder of the solution was water. The pH of the aqueous solution was maintained between about 5 to 10.
After the dust mites were immersed in the solution they were tested each minute to determine if they were still alive or not. To test if the mites were alive after treatment, they are viewed under a dissecting microscope and poked with a 26-guage needle to induce movement. […] Since sometimes dust mites may appear to-be dead after treatment and then recover a few days later, a treated population and a control sample were placed in a high humidity desiccators and poke tests were conducted over several days following the initial treatment to ensure that the initial reported kill rates were accurate.

Vapor pressure = assay: Vapor pressure
Method: The preferred vapor pressure of the solvents is less than about 1 mm Hg at 20° C., and preferably the vapor pressure is less than 0.5 mm Hg at 20° C.

[1] = Solubility in water at 20° C.

Row | Structure (SMILES) | 8% Solution: time to 100% kill (dust mites) | >50% kill in 30 min. (dust mites) | Vapor Pressure (mm Hg) (Vapor pressure) | Solubility in water at 20° C. [1] | Vapor Pressure (mm Hg) (Vapor pressure; at 20° C.) | other results
1 | CCCCOCCOCCOC(C)=O [Butyl Carbitol Acetate, diethylene glycol n-butyl ether acetate] | 20 min | Yes | 0.04 mm Hg | – | – | 1% HC Solution: % kill at 30 min (dust mites): 50% kill; 1% HC with 7% DPnP Solution: % kill at 30 min (dust mites): 90% kill; 1% HC with 7% DpnP at 9.5 pH: % kill at 30 min (dust mites): 80% kill
2 | CCCCOCCOC(C)=O [Butyl Cellosolve Acetate, ethylene glycol n-butyl ether acetate] | 4 min | Yes | – | 1% | 0.29 mm Hg | 1% HC Solution: time to 100% kill (dust mites): 22 min; 1% HC with 7% DPnP Solution: time to 100% kill (dust mites): 18 min; 1% HC with 7% DpnP at 9.5 pH: time to 100% kill (dust mites): 16 min
3 | CCOCCOCCO [Diethylene glycol ethyl ether] | – | No | 0.12 mm Hg | – | – | –
4 | COCCOCCO [Diethylene glycol methyl ether] | – | no | – | 100% | 0.2 mm Hg | –
5 | CCCCOCCOCCO [Diethylene glycol n-butyl ether] | – | No | – | 100% | 0.02 mm Hg | –
6 | COC(C)COC(C)COC(C)=O (stereo not shown) [Dipropylene glycol methyl ether acetate] | – | Yes | 0.05 mm Hg | – | – | –
7 | COC(C)COC(C)CO (stereo not shown) [Dipropylene glycol methyl ether] | – | No | 0.17 mm Hg | – | – | –
8 | CCCOC(C)COC(C)CO (stereo not shown) [Dipropylene glycol n-propyl ether] | – | No | – | 18% | 0.05 mm Hg | –
9 | OCCOc1ccccc1 [Dowanol Eph, ethylene glycol phenyl ether] | 17 min | – | – | – | – | 1% HC Solution: % kill at 30 min (dust mites): 95% kill; 1% HC with 7% DPnP Solution: % kill at 30 min (dust mites): 95% kill; 1% HC with 7% DpnP at 9.5 pH: % kill at 30 min (dust mites): 50% kill
10 | CC(O)COc1ccccc1 (stereo not shown) [Dowanol PPh, propylene glycol phenol ether] | 7 min | – | – | – | – | 1% HC Solution: time to 100% kill (dust mites): 22 min; 1% HC with 7% DPnP Solution: time to 100% kill (dust mites): 30 min; 1% HC with 7% DpnP at 9.5 pH: time to 100% kill (dust mites): 26 min
11 | CCCCOCC(C)O (stereo not shown) [Dowanol PnB, propylene glycol n-butyl ether] | 17 min | Yes | 0.62 mm Hg | – | – | 1% HC Solution: % kill at 30 min (dust mites): None; 1% HC with 7% DPnP Solution: time to 100% kill (dust mites): 29 min; 1% HC with 7% DpnP at 9.5 pH: % kill at 30 min (dust mites): 60% kill
12 | CCCCOC(C)COC(C)COC(C)CO (stereo not shown) [Dowanol TPnB, Tripropylene glycol n-butyl ether] | 20 min | Yes | – | – | <0.01 mm Hg | 1% HC Solution: % kill at 30 min (dust mites): None; 1% HC with 7% DPnP Solution: % kill at 30 min (dust mites): 90% kill; 1% HC with 7% DpnP at 9.5 pH: % kill at 30 min (dust mites): No kill
13 | CCCCOCCO [Ethylene glycol n-butyl ether] | – | No | – | – | 0.6 mm Hg | –
14 | CCCOCCO [Ethylene glycol n-propyl ether] | – | No | 1.3 mm Hg | – | – | –
15 | CCCCCCOCCOCCO [Hexyl Carbitol, diethylene glycol monohexyl ether] | 25 min | – | – | – | – | 1% HC Solution: % kill at 30 min (dust mites): None; 1% HC with 7% DPnP Solution: time to 100% kill (dust mites): 26 min; 1% HC with 7% DpnP at 9.5 pH: % kill at 30 min (dust mites): No kill
16 | CCCCCCOCCO [Hexyl Cellosolve, ethylene glycol monohexyl ether] | 11 min | Yes | <1.0 mm Hg | – | – | 1% HC Solution: time to 100% kill (dust mites): 15 min; 1% HC with 7% DPnP Solution: time to 100% kill (dust mites): 14 min; 1% HC with 7% DpnP at 9.5 pH: time to 100% kill (dust mites): 26 min
17 | COCC(C)OC(C)=O (stereo not shown) [Propylene glycol methyl ether acetate] | – | No | 3.8 mm Hg | – | – | –
18 | COCC(C)O (stereo not shown) [Propylene glycol methyl ether] | – | No | – | 100% | 8.1 mm Hg | –
19 | CCCOCC(C)O (stereo not shown) [Propylene glycol n-propyl ether] | – | No | – | 100% | 1.8 mm Hg | –
